The values that follow come from ChEMBL document CHEMBL6115019, “Discovery and Optimization of Novel Apo-IDO1 Inhibitors by a Pharmacophore-Based Structural Simplification Strategy” (J Med Chem, 2025).

For data set [1], the target named is Indoleamine 2,3-dioxygenase 1 (Homo sapiens, UniProt P14902). Kind of data set: Binding affinity to IDO1 in human HeLa cells assessed as increase in heme level by absorbance based assay. It is filed as cell-based.
Data set [2] concerns the target Tryptophan 2,3-dioxygenase (Homo sapiens) (UniProt P48775). Kind of data set: Inhibition of human TDO2 transfected in human HeLa cells using L-tryptophan as substrate at 0.5 uM measured after 24 hrs relative to control. It is filed as cell-based.
Data set [3] can be described thus: Metabolic stability in rat liver microsomes assessed as half life measured for 5 to 60 mins. It is filed as ADME, Microsome. The settings on record: time 5-60 min. (In general: Liver microsomes are vesicles of endoplasmic reticulum, rich in cytochrome P450 enzymes.)
Data set [4] can be described thus: AUC (0 to t) in Sprague-Dawley rat at 2 mg/kg, iv measured for 5 to 600 mins by LC-MS/MS analysis. The note with it: in vivo, time 5-600 min. It is filed as ADME, organism-based.
Data set [5] can be described thus: MRT (0 to infinity) in Sprague-Dawley rat at 2 mg/kg, iv measured for 5 to 600 mins by LC-MS/MS analysis. The note with it: in vivo, time 5-600 min. It is filed as ADME, organism-based.
A short description of data set [6]: Half life in Sprague-Dawley rat at 20 mg/kg, ip measured for 5 to 600 mins by LC-MS/MS analysis. It is filed as ADME, organism-based. The note with it: in vivo, time 5-600 min.
Data set [7] can be described thus: Cmax in Sprague-Dawley rat at 20 mg/kg, ip measured for 5 to 600 mins by LC-MS/MS analysis. It is filed as ADME, organism-based. The settings on record: in vivo, time 5-600 min.
A short description of data set [8]: MRT (0 to infinity) in Sprague-Dawley rat at 20 mg/kg, ip measured for 5 to 600 mins by LC-MS/MS analysis. It is filed as ADME, organism-based. The settings on record: in vivo, time 5-600 min.
The test system of the next data set is CT26. Kind of data set: Antitumor activity against mouse CT26 cells implanted in syngeneic Balb/c mouse at 60 mg/kg, ip qd treated for 14 days consecutively relative to control. It is filed as functional. The settings on record: CT26, 336 h, time 14 day, read-out: TGI.
Data set [9] can be described thus: Toxicity in syngeneic Balb/c mouse implanted with mouse CT26 cells assessed as body weight loss at 15 to 60 mg/kg, ip qd treated for 14 days consecutively. It is filed as organism-based. The note with it: in vivo, 336 h, dose 15-60 mg/kg, time 14 day.
Data set [10] in a line: Toxicity in syngeneic Balb/c mouse implanted with mouse CT26 cells assessed as damage in lungs at 15 to 60 mg/kg, ip qd treated for 14 days consecutively by H and E staining based analysis. It is filed as organism-based. The settings on record: in vivo, 336 h, dose 15-60 mg/kg, time 14 day.
Data set [11] concerns Mus musculus. Kind of data set: In vivo induction of T cell infiltration in tumor tissue of Balb/c mouse implanted with mouse CT26 cells assessed as […] T cells at 30 mg/kg, ip qd treated for 14 days consecutively by flow cytometry (reference value: 16.5 %). It is filed as functional. The settings on record: time 14 day. Background: In flow cytometry, cells or beads pass a laser one at a time.

For data set [12], the system named is Mus musculus. Kind of data set: In vivo induction of T cell infiltration in spleen of Balb/c mouse implanted with mouse CT26 cells assessed as CD3+CD4+ T cells at 15 mg/kg, ip qd treated for 14 days consecutively by flow cytometry (reference value: 8.28 %). It is filed as functional. The note with it: time 14 day.
Data set [13] deals with Mus musculus. Kind of data set: In vivo induction of T cell infiltration in spleen of Balb/c mouse implanted with mouse CT26 cells assessed as CD3+CD4+ T cells at 30 mg/kg, ip qd treated for 14 days consecutively by flow cytometry (reference value: 8.28 %). It is filed as functional. The note with it: time 14 day.
The subject of data set [14] is Mus musculus. Kind of data set: In vivo induction of T cell infiltration in spleen of Balb/c mouse implanted with mouse CT26 cells assessed as […] T cells at 15 mg/kg, ip qd treated for 14 days consecutively by flow cytometry (reference value: 5.55 %). It is filed as functional. The note with it: time 14 day.
The test system of data set [15] is Mus musculus. Kind of data set: In vivo induction of T cell infiltration in spleen of Balb/c mouse implanted with mouse CT26 cells assessed as […] T cells at 30 mg/kg, ip qd treated for 14 days consecutively by flow cytometry (reference value: 5.55 %). It is filed as functional. The settings on record: time 14 day.

Structures are written as SMILES. Activity calls are given as the source filed them.

A word on the inhibition: it is the relative decrease from the control value, in per cent. In general, half-life refers to the time needed for the level to fall by half in the phase considered. For orientation: AUC(0-t) means the area under the concentration-time curve up to a stated or last time point. A word on the MRT inf: it is the average time that molecules of a dose stay in the body. What is called Cmax is the highest concentration seen after dosing.

Indoleamine 2,3-dioxygenase 1, sequence (P14902 whole entry, looked up): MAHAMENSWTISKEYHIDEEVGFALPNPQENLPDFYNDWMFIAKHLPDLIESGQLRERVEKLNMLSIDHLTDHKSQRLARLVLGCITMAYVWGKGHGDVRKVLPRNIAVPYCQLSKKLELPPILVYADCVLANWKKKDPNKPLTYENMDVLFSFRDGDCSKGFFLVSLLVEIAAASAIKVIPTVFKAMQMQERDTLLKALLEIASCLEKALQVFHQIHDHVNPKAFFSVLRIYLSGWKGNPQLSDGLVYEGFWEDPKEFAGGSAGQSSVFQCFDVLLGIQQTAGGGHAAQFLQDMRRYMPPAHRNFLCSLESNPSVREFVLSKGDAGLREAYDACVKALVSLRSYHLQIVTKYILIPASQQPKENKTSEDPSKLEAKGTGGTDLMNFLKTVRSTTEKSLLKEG
Tryptophan 2,3-dioxygenase (Homo sapiens), sequence (P48775 whole entry, looked up): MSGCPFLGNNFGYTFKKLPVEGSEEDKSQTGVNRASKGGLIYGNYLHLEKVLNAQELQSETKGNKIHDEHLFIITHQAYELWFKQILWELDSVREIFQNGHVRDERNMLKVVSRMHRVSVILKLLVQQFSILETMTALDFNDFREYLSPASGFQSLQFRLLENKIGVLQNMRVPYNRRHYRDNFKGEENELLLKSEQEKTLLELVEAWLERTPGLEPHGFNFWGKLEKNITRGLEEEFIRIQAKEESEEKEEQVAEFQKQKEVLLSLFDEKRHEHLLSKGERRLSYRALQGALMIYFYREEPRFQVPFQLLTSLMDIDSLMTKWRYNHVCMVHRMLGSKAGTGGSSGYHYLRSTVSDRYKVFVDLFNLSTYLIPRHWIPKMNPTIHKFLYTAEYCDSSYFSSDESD

As for `O=C(CCCc1ccc(-c2ccc(F)cn2)cc1)Nc1ccc(F)cc1`, the result in data set [1] was Active. For the same compound, in data set [2], the inhibition is -2.3%. Besides, the half-life in data set [3] was 5.25 h; in [6] it was 1.01 h. In addition, in [4], the AUC(0-t) turned out to be 287 ng·h/mL. Moreover, the mean residence time (MRT inf) in [5] came out at 0.72 h; in data set [8] it was 1.65 h. This compound showed a Cmax in data set [7] of 1520 ng/mL. Moreover, the inhibition in vivo at 60 mg/kg with CT26 amounted to 63%. The Activity result in data set [9] was “Non-toxic”; in data set [10], “Non-toxic”; in the data set with Mus musculus [11], 30%; in the data set on Mus musculus [12], 9.31%; in the data set with Mus musculus [13], 11.3%; in the data set on Mus musculus [14] it was 7.23%. Further, the Activity with Mus musculus [15] worked out at 10.1%.
